Source: patent US11304974B2, “Nanosystems comprising silver and antibiotics and their use for the treatment of bacterial infections” (priority 2017, dated 2022)
Like-named read-outs stand apart in the source and are kept apart here.

Experiments:
[1] = tested on: S. aureus Sa-11 (strain 10); assay: Checkerboard synergy test collargol-vancomycin (Example 5); settings: Staphylococcus aureus, read-out: MIC (product alone, Checkerboard test)
Description: (§3) To determine the existence of synergistic activity between collargol and vancomycin, a checkerboard test using plates having a “U”-shaped bottom (TPP) of 96 wells was used. Double subinhibitory serial dilutions of the two antimicrobials were prepared, so that the concentration of collargol decreased vertically (up-down) and the concentration of vancomycin decreased horizontally (left-right).
(§4) To quantify the synergistic activity of the two combined compounds, the Index fractional inhibitory concentration (IFIC) parameter was used. This index relates MIC of the antimicrobial 1 with the antimicrobial 2 alone and in combination, according to the following formula:
(§5) It is considered that there is synergistic effect if the IFIC value is <0.5.
(§6) The procedure was as follows: • Preparation of fresh cultures of each of the strains on blood agar (37° C., 24 h). […] The well wherein the minimum value of IFIC is obtained is chosen.

[2] = tested on: S. aureus Sa-10 (strain 9); assay: as above; settings: Staphylococcus aureus, read-out: MIC (product alone, Checkerboard test)
Description: as §3, §4, §5, §6

[3] = tested on: S. aureus Sa-12 (strain 11); assay: as above; settings: Staphylococcus aureus, read-out: MIC (product alone, Checkerboard test)
Description: as §3, §4, §5, §6

[4] = tested on: S. epidermidis Se-1 (strain 14); assay: as above; settings: Staphylococcus epidermidis, read-out: MIC (product alone, Checkerboard test)
Description: as §3, §4, §5, §6

[5] = tested on: S. aureus Sa-12 (strain 11); assay: Epsilometry E-test, absence and presence of silver (Example 5); format: cell-based; settings: Staphylococcus aureus
Description: (§1) In order to evaluate the synergy of collargol-antibiotics an epsilometry E-test was carried out. Said test is based on the agar diffusion method and relates to using a strip with a predefined steady gradient of 15 concentrations of the antibiotic being tested. After strain growth, an elliptical inhibition halo, being the MIC the antibiotic concentration corresponding to the cutting point.
(§2) It was performed for the antibiotics vancomycin, linezolid and tedizolid, in absence and presence of silver (½ and 1/10 MIC).

[6] = tested on: S. aureus Sa-9 (strain 8); assay: as above; format: cell-based; settings: Staphylococcus aureus
Description: as §1, §2

[7] = tested on: S. aureus Sa-3 (strain 3); assay: as above; format: cell-based; settings: Staphylococcus aureus
Description: as §1, §2

[8] = tested on: S.aureus ATCC 700698 Sa-SARM (strain 15); assay: as above; format: cell-based; settings: Staphylococcus aureus
Description: as §1, §2

[9] = tested on: S. aureus Sa-10 (strain 9); assay: as above; format: cell-based; settings: Staphylococcus aureus
Description: as §1, §2

[10] = tested on: S. aureus Sa-13 (strain 12); assay: as above; format: cell-based; settings: Staphylococcus aureus
Description: as §1, §2

[11] = tested on: S. epidermidis Se-1 (strain 14); assay: as above; format: cell-based; settings: Staphylococcus epidermidis
Description: as §1, §2

[12] = tested on: S. aureus Sa-1 (strain 1); assay: as above; format: cell-based; settings: Staphylococcus aureus
Description: as §1, §2

[13] = tested on: S. aureus Sa-11 (strain 10); assay: as above; format: cell-based; settings: Staphylococcus aureus
Description: as §1, §2

[14] = tested on: S. aureus Sa-14 (strain 13); assay: as above; format: cell-based; settings: Staphylococcus aureus, strain 13 (S. aureus Sa-14)
Description: as §1, §2

Gram Positive Bacteria = assay: Silver-antibiotics interaction study, MicroScan (Example 4); format: cell-based, S. aureus; settings: subinhibitory colloidal silver (½ or 1/10 MIC)
Description: The effect of subinhibitory concentrations of colloidal silver (namely, ½ and 1/10 dilution of the MIC obtained in Example 3) in the presence of different types of antibiotics was tested.
For this, an automated equipment MicroScan AutoScan 4 (Siemens) was used, using Gram negative (Becman Coulter NM37) and Gram positive (Becman Coulter PM28) cards.
Each of these broths served as inoculum for the cards with antibiotics (for each strain, thus 3 cards were prepared). • Incubating the plates with antibiotics (in presence and absence of silver) at 37° C. for 24 h. • Reading the cards by use of LabPro software, and interpretation of the obtained values of MIC (determine if the silver reduces the initial MCI of each antibiotic).

[15] = tested on: S. aureus Sa-3 (strain 3); assay: Checkerboard synergy test collargol-vancomycin (Example 5); settings: Staphylococcus aureus, read-out: MIC (product alone, Checkerboard test)
Description: as §3, §4, §5, §6

[16] = read-out: MIC (E-test) MH (without silver)
[17] = read-out: MIC (E-test) MH-1/10 MIC
[18] = read-out: MIC (E-test) MH-½ MIC

SMILES: CN[C@H](CC(C)C)C(=O)N[C@H]1C(=O)N[C@@H](CC(N)=O)C(=O)N[C@H]2C(=O)N[C@H]3C(=O)N[C@H](C(=O)N[C@H](C(=O)O)c4cc(O)cc(O)c4-c4cc3ccc4O)[C@H](O)c3ccc(c(Cl)c3)Oc3cc2cc(c3O[C@@H]2O[C@H](CO)[C@@H](O)[C@H](O)[C@H]2O[C@H]2C[C@](C)(N)[C@H](O)[C@H](C)O2)Oc2ccc(cc2Cl)[C@H]1O [Vancomycin]
- MIC [1]: 1 µg/mL
- MIC [2]: 1 µg/mL
- MIC [3]: 1 µg/mL
- MIC [4]: 1 µg/mL
- MIC [5, 16]: 1 µg/mL
- MIC [5, 17]: 1 µg/mL
- MIC [5, 18]: 0.5 µg/mL
- MIC [6, 16]: 1 µg/mL
- MIC [6, 17]: 1 µg/mL
- MIC [6, 18]: 0.75 µg/mL
- MIC [7, 16]: 0.75 µg/mL
- MIC [7, 17]: 0.75 µg/mL
- MIC [7, 18]: 0.38 µg/mL
- MIC ([8]; ATCC700698, read-out: MIC (E-test) MH (without silver)): 1.5 µg/mL
- MIC ([8]; ATCC700698, read-out: MIC (E-test) MH-1/10 MIC): 1 µg/mL
- MIC ([8]; ATCC700698, read-out: MIC (E-test) MH-½ MIC): 1 µg/mL
- MIC [9, 16]: 1 µg/mL
- MIC [9, 17]: 1 µg/mL
- MIC [9, 18]: 0.38 µg/mL
- MIC [10, 16]: 0.5 µg/mL
- MIC [10, 17]: 0.5 µg/mL
- MIC [10, 18]: 0.38 µg/mL
- MIC [11, 16]: 0.75 µg/mL
- MIC [11, 17]: 0.5 µg/mL
- MIC [11, 18]: 0.38 µg/mL
- MIC [12, 16]: 0.5 µg/mL
- MIC [12, 17]: 0.5 µg/mL
- MIC [12, 18]: 0.38 µg/mL
- MIC [13, 16]: 0.5 µg/mL
- MIC [13, 17]: 0.38 µg/mL
- MIC [13, 18]: 0.25 µg/mL
- MIC ([14]; MH agar with 1/10 MIC of colargol, read-out: MIC (E-test) MH-1/10 MIC): 0.38 µg/mL
- MIC ([14]; MH agar with ½ MIC of colargol, read-out: MIC (E-test) MH-½ MIC): 0.25 µg/mL
- MIC ([14]; MH agar without silver, read-out: MIC (E-test) MH (without silver)): 0.38 µg/mL
- Effect of silver on the strain's sensitivity to the antibiotic (Gram Positive Bacteria): improved sensitivity
- MIC [15]: 1 µg/mL
